Measured values taken from article PMC8344022, “Small-molecule inhibitor of AF9/ENL-DOT1L/AF4/AFF4 interactions suppresses malignant gene expression and tumor growth” (Theranostics, 2021).
Read-outs that look alike come from different tables or passages of the source. Blank lines part the entries; values can stand above or below the compound they belong to.

Key:
[1] = tested on: MV4;11 cells; assay: Antiproliferation assay (XTT); assay type: cell-based; conditions: read-out: Cytotoxicity EC50
Description: (§1) Antiproliferation assay. Proliferation inhibition assays for suspension blood cancer cells were performed using an XTT assay kit (Roche). Proliferation inhibition assays for solid tumor cell lines MCF-7, MDA-MB-231, Panc1, Panc28 were performed using an MTT assay (Sigma). The antiproliferation EC50 values were determined using Prism 5 and the reported results were the mean values of at least three independent experiments. The incubation time for compound 1 was 7 days and that for EPZ4777 was 14 days.

[2] = tested on: Molm-13 cells; assay: Antiproliferation assay (XTT); assay type: cell-based; conditions: read-out: Cytotoxicity EC50
Description: as §1

[3] = tested on: RPMI-8226 cells; assay: Antiproliferation assay (XTT); assay type: cell-based; conditions: read-out: Cytotoxicity EC50
Description: as §1

[4] = tested on: U266 cells; assay: Antiproliferation assay (XTT); assay type: cell-based; conditions: read-out: Cytotoxicity EC50
Description: as §1

[5] = tested on: MCF-7 cells; assay: Antiproliferation assay (MTT); assay type: cell-based; conditions: read-out: Cytotoxicity EC50
Description: as §1

[6] = tested on: MDA-MB-231 cells; assay: Antiproliferation assay (MTT); assay type: cell-based; conditions: read-out: Cytotoxicity EC50
Description: as §1

[7] = tested on: Panc-1 cells; assay: Antiproliferation assay (MTT); assay type: cell-based; conditions: read-out: Cytotoxicity EC50
Description: as §1

[8] = tested on: Panc-28 cells; assay: Antiproliferation assay (MTT); assay type: cell-based; conditions: read-out: Cytotoxicity EC50
Description: as §1

[9] = tested on: nuclear protein levels in Molm-13 cells; assay: Western blot of nuclear proteins; assay type: cell-based; conditions: 3 days
Description: Next, we investigated how compound 1 affects these transcription cofactors in the nucleus, where they regulate gene expression. […] DOT1L inhibitor EPZ4777 [25] reduced the methylation levels of H3K79, but not other proteins (Figure 3B). […] In this regard, despite lack of activity against DOT1L, compound 1 can mimic EPZ4777 to reduce H3K79 methylation.
Western blot. 3x10^6 cells/well were treated with increasing concentrations of a compound for 3 days and nuclear proteins extracted with the EpiQuik Nuclear Extraction Kit (Epigentek) according to the manufacturer's protocol. Equal amounts of proteins were separated on SDS-PAGE and transferred to PVDF membranes. The blots were probed with primary antibodies, followed by anti-rabbit or anti-mouse IgG (Thermo Scientific) secondary antibodies. The primary antibodies used in this research were MBP Mouse mAb (#2396, Cell signaling), DOT1L Rabbit mAb (#77087, Cell signaling), MLL-N Rabbit mAb (#14689, Cell signaling), ENL Rabbit mAb (#14893, Cell signaling), Di-Methyl-Histone H3K79 Rabbit mAb (#5427, Cell signaling), Mono-Methyl-Histone H3K79 Rabbit mAb (#9398, Cell signaling), Histone H3 Rabbit mAb (#4499, Cell signaling), AF4 Rabbit pAb (#NBP1-28705, Novusbio) and AFF4 Rabbit pAb (#ab103586, Abcam).

[10] = tested on: HoxA9, Meis1 and Myc expression in MV4;11 cells; assay: qPCR of MLL target genes; assay type: cell-based; conditions: 4 days
Description: (§2) Next, compound 1 was tested for its ability to change expression of characteristic MLL-r leukemia genes HoxA9, Meis1 and Myc. Myc is also overexpressed in a broad range of AML and other cancers. […] (Figure S5), presumably because SEC is not recruited there.
(§3) RNA extraction and Quantitative real-time PCR (qPCR). 10^5 cells/ml were incubated with a compound for 4 days and the RNA was extracted using RNeasy mini kit (#74104, Qiagen). 100-1000 ng of total RNA was reverse transcribed using iScript™ Reverse Transcription Supermix (Bio-Rad) using the manufacturer's protocol. Quantitative real-time PCR was carried out using Fast SYBR Green Master Mix (Applied Biosystems) according to the manufacturer's instructions. Measurements were performed in triplicate, using GAPDH as the reference gene. Real-time PCR was performed using Biosystems Step One Plus detection system. The following sequences of primers are used: […]

[11] = tested on: HoxA9, Meis1 and Myc expression in Molm-13 cells; assay: qPCR of MLL target genes; assay type: cell-based; conditions: 4 days
Description: as §2, §3

[12] = tested on: H3K79me2 at gene promoters in Molm-13 cells; assay: Chromatin immunoprecipitation (ChIP)-qPCR; assay type: cell-based; conditions: 2 μM
Description: as §2
Chromatin immunoprecipitation. […] Cells were lysed with nuclear lysis buffer and sonicated to ~100-1000 bp fragments, which was incubated at 4 °C overnight with the H3K79me2 antibody (#5427, Cell signaling) and IgG (C15410206, Diagenode). Protein A/G Magnetic Beads (10 µL, Novus Biologicals) were added and incubated for 2 h. The beads were washed 3x with RIPA buffer and 2x with TE buffer. DNA on the beads was eluted for 2 hours at 68 °C in 100 μL of an elution buffer (20 mM Tris pH 7.5, 5 mM EDTA, 50 mM NaCl, 1% SDS, 50 μg/ml proteinase K) (2x), and purified using a ChIP DNA Clean & Concentrator kit (Novus Biologicals). qPCR was done using the method described above.

[13] = tested on: THP-1 cells; set-up: method as in earlier work; conditions: read-out: Cytotoxicity EC50; cited from earlier work
[14] = tested on: HL60 cells; set-up: method as in earlier work; conditions: read-out: Cytotoxicity EC50; cited from earlier work
[15] = tested on: Kasumi-1 cells; set-up: method as in earlier work; conditions: read-out: Cytotoxicity EC50; cited from earlier work
[16] = tested on: Jurkat cells; set-up: method as in earlier work; conditions: read-out: Cytotoxicity EC50; cited from earlier work
[17] = biological target: T1, AF9-DOT1L interaction (Homo sapiens, UniProt P42568); assay: Alpha assay, AF9 AHD-DOT1L peptide interaction; assay type: binding; conditions: read-out: IC50, inhibition of AF9-DOT1L interaction
T1 construct: cDNA for human AF9 AHD domain (475-568) and ENL AHD domain (489-559) was synthesized; made in house; host or cells: E. coli BL21(DE3)
T1 sequence (P42568 475-568): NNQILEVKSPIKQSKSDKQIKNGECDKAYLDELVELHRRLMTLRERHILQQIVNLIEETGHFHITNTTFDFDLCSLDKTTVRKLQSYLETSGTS
Text: We developed an Alpha (amplified luminescent proximity homogeneous assay) assay to determine the binding and inhibition of the PPI between maltose-binding protein (MBP)-tagged AF9 AHD and a biotin-labeled DOT1L peptide, using AlphaLisa streptavidin donor beads and anti-MBP acceptor beads. Laser excitation to the donor beads generates singlet oxygen radicals, which can travel for <200 nm in solution and cannot reach the free acceptor beads. The PPI brings the DOT1L coated donor beads and AHD coated acceptor beads together, allowing the radicals to activate the acceptor beads and produce luminescence. […] We also developed a fluorescence polarization (FP) assay. A fluorescein-labeled DOT1L peptide has a higher freedom in solution with a lower polarization value.
Alpha assays. Alpha assays were developed using Perkin-Elmer AlphaLisa anti-MBP kit, which contains streptavidin donor beads and anti-MBP acceptor beads. The assay was performed using a MBP-protein (5 nM), a biotinylated peptide (40 nM), and increasing concentrations of a compound in 25 µL buffer (PBS with 0.5 % BSA, pH 7.5) in 384-well plates according to the manufacturer's protocol and measured with a Tecan SPARK microplate reader. Data were imported into Prism (version 5.0), and IC50 values from 3 independent experiments with standard deviation were obtained by using a standard dose-response curve fitting.

[18] = biological target: T2, AF9 AHD bound to DOT1L-coated beads (Homo sapiens, UniProt P42568); assay: Western blot based pull-down assay; assay type: binding; conditions: increasing concentrations
T2 construct: cDNA for human AF9 AHD domain (475-568) and ENL AHD domain (489-559) was synthesized; made in house; host or cells: E. coli BL21(DE3)
Description: A non-optical pull-down assay was used to further validate compound 1. DOT1L-coated beads were incubated with AF9 AHD in the presence of increasing concentrations of 1.
Western blot based pull-down assay. Biotinylated DOT1L peptide (0.25 mg/mL) was incubated with streptavidin agarose beads in PBS containing 0.1% Triton X-100 (400 µL) for 3h to yield, after washing, DOT1L-coated beads. MBP-AF9 AHD (0.2 µM, 40 µL) was pre-incubated with a compound for 30 min before adding to the beads. After 6 hours incubation at 4 °C, the beads were collected, thoroughly washed, and subjected to SDS-PAGE and analyzed by Western blot using an MBP Mouse mAb (#2396, Cell signaling).

[19] = tested on: HL60 cells; assay: Antiproliferation assay (XTT); assay type: cell-based; conditions: Homo sapiens, HL-60, 168 h, 7-day incubation, read-out: Cytotoxicity EC50
Description: as §1

[20] = tested on: Jurkat cells; assay: Antiproliferation assay (XTT); assay type: cell-based; conditions: Homo sapiens, 168 h, 7-day incubation, read-out: Cytotoxicity EC50
Description: as §1

[21] = tested on: Kasumi-1 cells; assay: Antiproliferation assay (XTT); assay type: cell-based; conditions: Homo sapiens, 168 h, 7-day incubation, read-out: Cytotoxicity EC50
Description: as §1

[22] = tested on: THP-1 cells; assay: Antiproliferation assay (XTT); assay type: cell-based; conditions: Homo sapiens, 168 h, 7-day incubation, read-out: Cytotoxicity EC50
Description: as §1

[23] = tested on: cancer cells; assay: Antiproliferation assays, cancer cell panel; assay type: cell-based; conditions: all cancer cells tested; read-out: EC50 against proliferation
Description: The differential antiproliferation activities of compound 1 is consistent with its ability to suppress DOT1L/H3K79 methylation and SEC regulated gene expression, which are critical to MLL-r leukemia and Myc-driven blood cancer, but largely dispensable to other solid tumor cells.
as §1

[24] = Homo sapiens, 168 h, 7-day incubation

Compound: CC(C)N(CCCNC(=O)Nc1ccc(C(C)(C)C)cc1)C[C@H]1O[C@@H](n2ccc3c(N)ncnc32)[C@H](O)[C@@H]1O [EPZ4777, reference compound]
EC50 ([1]; 14-day incubation): 1.1 ± 0.3 µM
EC50 ([2]; 14-day incubation): 1.2 ± 0.2 µM
EC50 ([3]; 14-day incubation): > 50 µM
EC50 ([4]; 14-day incubation): > 50 µM
EC50 ([5]; 14-day incubation): > 50 µM
EC50 ([6]; 14-day incubation): > 50 µM
EC50 ([7]; 14-day incubation): > 50 µM
EC50 ([8]; 14-day incubation): > 50 µM
Nuclear levels of DOT1L, H3K79me1 and me2, ENL and AFF4 [9]: only reduced those of H3K79me1 and me2, but not other proteins
Expression of MLL target genes HoxA9, Meis1 and Myc [10]: behaved similarly
Expression of MLL target genes HoxA9, Meis1 and Myc [11]: behaved similarly
H3K79me2 in the gene promoters of HoxA9 and Myc [12]: decreased levels of H3K79me2
EC50 [13]: 3.4 µM
EC50 [14]: > 50 µM
EC50 [15]: 33 µM
EC50 [16]: > 50 µM

IC50 [17]: > 50 µM
Beads-bound AF9 AHD in pull-down (Western blot) [18]: cannot
EC50 [23]: > 50 µM
Compound: O=C(NC1CCNCC1)c1cn(-c2ccc(-c3cn[nH]c3)cc2)c(-c2ccccc2)n1 [Compound 3]
EC50 [19]: > 50 µM
EC50 [20]: > 50 µM
EC50 [21]: > 50 µM
EC50 [1, 24]: > 50 µM
EC50 [2, 24]: > 50 µM
EC50 [3, 24]: > 50 µM
EC50 [22]: > 50 µM
EC50 ([4]; Homo sapiens, U-266, 168 h, 7-day incubation): > 50 µM
EC50 ([5]; Homo sapiens, MCF7, 168 h, 7-day incubation): > 50 µM
EC50 [6, 24]: > 50 µM
EC50 [7, 24]: > 50 µM
EC50 ([8]; 168 h, 7-day incubation): > 50 µM
Expression of MLL target genes HoxA9, Meis1 and Myc [10]: had no activity
Expression of MLL target genes HoxA9, Meis1 and Myc [11]: had no activity
